Source: ChEMBL document CHEMBL4507268 (2021)

What was measured:
Conditions in all cases: Compound concentration 1.0 uM
[1] = biological target: Tyrosine-protein kinase ABL2 (Homo sapiens) (UniProt P42684)
[2] = biological target: Calcium/calmodulin-dependent protein kinase type 1G (Homo sapiens) (UniProt Q96NX5)
[3] = biological target: T1, Ephrin type-A receptor 1 (Homo sapiens) (UniProt P21709)
T1 sequence (whole entry): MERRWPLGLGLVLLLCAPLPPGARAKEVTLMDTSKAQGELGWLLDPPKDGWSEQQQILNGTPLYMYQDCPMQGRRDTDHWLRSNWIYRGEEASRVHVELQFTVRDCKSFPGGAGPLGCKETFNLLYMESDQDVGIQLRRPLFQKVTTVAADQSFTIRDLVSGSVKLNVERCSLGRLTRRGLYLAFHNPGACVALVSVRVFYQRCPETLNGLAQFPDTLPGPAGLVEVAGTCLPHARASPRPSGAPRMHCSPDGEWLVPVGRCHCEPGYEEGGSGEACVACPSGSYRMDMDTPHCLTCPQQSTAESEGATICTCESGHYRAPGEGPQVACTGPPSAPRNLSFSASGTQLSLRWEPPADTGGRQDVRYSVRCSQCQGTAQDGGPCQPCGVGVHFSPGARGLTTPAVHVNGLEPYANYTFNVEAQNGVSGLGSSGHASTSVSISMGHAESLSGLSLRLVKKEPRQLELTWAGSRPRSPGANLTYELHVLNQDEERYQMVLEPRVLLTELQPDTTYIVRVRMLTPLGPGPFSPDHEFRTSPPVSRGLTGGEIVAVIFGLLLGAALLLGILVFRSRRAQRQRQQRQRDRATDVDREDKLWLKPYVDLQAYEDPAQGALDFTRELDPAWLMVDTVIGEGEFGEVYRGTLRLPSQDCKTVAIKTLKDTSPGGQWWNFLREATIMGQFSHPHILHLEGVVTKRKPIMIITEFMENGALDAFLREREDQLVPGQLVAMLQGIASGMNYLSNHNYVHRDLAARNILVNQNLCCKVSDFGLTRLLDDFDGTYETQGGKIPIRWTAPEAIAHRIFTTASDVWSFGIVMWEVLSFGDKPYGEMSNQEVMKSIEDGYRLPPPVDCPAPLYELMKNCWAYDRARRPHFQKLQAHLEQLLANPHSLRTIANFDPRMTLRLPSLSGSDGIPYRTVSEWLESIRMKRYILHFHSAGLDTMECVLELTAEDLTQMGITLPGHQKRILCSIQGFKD

[4] = biological target: T2, Ephrin type-A receptor 8 (Homo sapiens) (UniProt P29322)
T2 sequence (whole entry): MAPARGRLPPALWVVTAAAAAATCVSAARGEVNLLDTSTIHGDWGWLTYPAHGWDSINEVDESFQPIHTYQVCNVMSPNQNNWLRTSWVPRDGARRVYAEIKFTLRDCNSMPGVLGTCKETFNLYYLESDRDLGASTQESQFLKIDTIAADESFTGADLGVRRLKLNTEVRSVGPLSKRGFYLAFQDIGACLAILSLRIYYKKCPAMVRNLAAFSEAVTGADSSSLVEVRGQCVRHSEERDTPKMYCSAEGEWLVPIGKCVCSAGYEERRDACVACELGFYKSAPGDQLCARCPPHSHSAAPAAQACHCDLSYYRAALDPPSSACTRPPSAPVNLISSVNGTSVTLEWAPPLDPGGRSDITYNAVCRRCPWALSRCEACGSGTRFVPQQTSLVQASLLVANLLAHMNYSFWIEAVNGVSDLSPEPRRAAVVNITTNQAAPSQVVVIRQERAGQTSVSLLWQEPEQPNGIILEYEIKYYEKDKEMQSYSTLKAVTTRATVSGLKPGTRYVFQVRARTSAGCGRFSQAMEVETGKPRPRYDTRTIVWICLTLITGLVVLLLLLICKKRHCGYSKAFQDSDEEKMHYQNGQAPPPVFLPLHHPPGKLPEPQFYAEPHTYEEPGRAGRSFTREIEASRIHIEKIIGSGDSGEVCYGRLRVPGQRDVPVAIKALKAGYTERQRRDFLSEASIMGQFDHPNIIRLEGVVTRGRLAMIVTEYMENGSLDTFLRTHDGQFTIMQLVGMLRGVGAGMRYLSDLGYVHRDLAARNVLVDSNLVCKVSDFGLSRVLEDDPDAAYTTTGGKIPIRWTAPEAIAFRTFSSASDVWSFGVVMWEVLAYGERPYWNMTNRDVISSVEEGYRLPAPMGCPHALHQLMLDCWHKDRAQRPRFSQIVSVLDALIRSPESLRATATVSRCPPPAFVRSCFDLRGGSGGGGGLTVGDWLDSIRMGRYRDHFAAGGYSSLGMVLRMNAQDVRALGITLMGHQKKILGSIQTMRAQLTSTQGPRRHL

[5] = biological target: Vascular endothelial growth factor receptor 1 (Homo sapiens) (UniProt P17948)
Chain of Vascular endothelial growth factor receptor 1 (Homo sapiens) (P17948 whole entry): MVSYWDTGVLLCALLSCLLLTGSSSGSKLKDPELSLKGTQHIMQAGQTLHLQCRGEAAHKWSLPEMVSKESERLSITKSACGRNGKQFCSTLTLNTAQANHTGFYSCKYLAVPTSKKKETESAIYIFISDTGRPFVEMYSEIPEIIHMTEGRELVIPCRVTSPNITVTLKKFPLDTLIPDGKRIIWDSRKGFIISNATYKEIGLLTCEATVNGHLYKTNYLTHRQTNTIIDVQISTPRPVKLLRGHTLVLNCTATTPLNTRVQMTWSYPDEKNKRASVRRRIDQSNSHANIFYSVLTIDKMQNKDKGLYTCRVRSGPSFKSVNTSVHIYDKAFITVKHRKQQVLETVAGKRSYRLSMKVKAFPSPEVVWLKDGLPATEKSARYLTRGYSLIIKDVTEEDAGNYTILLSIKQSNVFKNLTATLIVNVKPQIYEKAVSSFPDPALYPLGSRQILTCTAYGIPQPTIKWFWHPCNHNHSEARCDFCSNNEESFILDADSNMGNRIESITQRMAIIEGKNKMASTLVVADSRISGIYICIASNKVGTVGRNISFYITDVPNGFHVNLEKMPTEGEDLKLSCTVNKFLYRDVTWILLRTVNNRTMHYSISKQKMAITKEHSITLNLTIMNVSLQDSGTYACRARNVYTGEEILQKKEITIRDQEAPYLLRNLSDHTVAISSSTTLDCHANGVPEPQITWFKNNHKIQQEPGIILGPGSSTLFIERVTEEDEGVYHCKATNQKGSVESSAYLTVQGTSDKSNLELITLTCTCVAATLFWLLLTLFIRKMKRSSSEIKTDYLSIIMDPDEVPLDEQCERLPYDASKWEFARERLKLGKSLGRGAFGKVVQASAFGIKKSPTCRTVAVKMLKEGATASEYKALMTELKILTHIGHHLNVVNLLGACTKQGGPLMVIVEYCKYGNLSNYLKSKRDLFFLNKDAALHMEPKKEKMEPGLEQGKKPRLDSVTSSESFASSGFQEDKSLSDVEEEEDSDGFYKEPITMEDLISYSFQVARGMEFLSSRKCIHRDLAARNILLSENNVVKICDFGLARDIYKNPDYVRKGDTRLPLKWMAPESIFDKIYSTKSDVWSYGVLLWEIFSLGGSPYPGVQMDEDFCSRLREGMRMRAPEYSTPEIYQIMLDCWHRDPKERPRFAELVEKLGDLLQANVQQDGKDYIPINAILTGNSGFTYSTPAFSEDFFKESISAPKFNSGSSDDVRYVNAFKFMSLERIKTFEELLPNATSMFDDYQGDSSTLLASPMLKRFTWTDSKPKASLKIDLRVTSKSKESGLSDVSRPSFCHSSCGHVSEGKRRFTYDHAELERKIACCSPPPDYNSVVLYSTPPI

[6] = biological target: Macrophage colony-stimulating factor 1 receptor (Homo sapiens) (UniProt P07333)
Chain of Macrophage colony-stimulating factor 1 receptor (Homo sapiens) (P07333 whole entry): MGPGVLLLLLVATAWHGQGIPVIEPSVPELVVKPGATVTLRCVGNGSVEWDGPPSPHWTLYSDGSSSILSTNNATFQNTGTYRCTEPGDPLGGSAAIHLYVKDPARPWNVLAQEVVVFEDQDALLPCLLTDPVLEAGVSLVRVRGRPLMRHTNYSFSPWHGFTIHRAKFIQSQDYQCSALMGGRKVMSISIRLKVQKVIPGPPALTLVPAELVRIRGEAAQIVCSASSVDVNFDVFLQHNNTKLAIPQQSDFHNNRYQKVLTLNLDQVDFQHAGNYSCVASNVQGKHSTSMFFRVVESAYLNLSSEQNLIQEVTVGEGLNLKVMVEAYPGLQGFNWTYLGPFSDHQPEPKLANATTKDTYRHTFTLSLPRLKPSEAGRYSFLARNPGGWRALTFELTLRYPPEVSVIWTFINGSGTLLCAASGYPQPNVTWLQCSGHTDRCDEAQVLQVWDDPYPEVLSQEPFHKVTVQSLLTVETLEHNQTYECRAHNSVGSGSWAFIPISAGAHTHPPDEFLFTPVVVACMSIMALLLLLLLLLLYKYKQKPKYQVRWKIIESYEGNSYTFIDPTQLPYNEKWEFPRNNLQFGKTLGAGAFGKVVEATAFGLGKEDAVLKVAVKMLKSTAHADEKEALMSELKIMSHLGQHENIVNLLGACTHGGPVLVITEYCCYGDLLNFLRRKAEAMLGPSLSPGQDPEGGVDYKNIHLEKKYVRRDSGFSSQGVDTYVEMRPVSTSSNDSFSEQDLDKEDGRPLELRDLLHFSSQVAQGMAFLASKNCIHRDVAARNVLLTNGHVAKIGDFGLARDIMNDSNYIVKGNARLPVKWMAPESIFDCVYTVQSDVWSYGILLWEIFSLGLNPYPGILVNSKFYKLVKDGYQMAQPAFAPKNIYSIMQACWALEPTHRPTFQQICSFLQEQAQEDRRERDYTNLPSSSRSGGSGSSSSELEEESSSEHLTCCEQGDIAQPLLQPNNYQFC

[7] = biological target: T3, Dual specificity mitogen-activated protein kinase kinase 7 (Homo sapiens) (UniProt O14733)
T3 sequence (whole entry): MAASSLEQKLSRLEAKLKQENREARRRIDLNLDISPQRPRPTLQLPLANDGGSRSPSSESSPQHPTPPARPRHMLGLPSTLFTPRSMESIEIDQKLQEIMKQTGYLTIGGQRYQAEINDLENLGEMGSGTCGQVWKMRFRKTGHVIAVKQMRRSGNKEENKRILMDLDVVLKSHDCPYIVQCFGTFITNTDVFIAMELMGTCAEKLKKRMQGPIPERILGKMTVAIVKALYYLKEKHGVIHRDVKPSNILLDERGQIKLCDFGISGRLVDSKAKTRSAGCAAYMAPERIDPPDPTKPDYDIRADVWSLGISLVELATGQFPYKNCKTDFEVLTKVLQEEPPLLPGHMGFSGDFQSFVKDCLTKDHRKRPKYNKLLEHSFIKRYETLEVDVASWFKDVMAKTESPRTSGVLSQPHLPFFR

[8] = biological target: Protein kinase C beta type (Homo sapiens) (UniProt P05771)
Chain of Protein kinase C beta type (Homo sapiens) (P05771 2-671 limits assumed): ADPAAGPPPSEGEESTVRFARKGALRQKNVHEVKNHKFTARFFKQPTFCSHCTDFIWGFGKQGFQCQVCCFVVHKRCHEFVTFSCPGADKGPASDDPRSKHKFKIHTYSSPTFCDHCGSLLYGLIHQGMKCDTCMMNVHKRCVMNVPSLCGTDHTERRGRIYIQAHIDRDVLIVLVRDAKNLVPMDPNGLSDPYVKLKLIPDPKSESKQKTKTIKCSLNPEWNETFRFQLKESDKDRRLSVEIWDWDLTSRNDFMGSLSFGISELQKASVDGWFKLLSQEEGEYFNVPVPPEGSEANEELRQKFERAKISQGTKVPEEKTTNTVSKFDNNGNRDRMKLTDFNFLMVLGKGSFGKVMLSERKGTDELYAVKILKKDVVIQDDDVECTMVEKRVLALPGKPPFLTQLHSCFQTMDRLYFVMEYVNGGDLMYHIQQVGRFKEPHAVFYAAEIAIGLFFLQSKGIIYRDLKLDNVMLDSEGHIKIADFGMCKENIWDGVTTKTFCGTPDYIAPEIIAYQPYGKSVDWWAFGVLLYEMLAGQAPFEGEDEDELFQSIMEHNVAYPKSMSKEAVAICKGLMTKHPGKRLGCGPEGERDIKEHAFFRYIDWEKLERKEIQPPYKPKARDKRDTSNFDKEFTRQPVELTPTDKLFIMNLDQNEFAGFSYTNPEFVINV

[9] = biological target: Tau-tubulin kinase 2 (Homo sapiens) (UniProt Q6IQ55)
Chain of Tau-tubulin kinase 2 (Homo sapiens) (Q6IQ55 whole entry): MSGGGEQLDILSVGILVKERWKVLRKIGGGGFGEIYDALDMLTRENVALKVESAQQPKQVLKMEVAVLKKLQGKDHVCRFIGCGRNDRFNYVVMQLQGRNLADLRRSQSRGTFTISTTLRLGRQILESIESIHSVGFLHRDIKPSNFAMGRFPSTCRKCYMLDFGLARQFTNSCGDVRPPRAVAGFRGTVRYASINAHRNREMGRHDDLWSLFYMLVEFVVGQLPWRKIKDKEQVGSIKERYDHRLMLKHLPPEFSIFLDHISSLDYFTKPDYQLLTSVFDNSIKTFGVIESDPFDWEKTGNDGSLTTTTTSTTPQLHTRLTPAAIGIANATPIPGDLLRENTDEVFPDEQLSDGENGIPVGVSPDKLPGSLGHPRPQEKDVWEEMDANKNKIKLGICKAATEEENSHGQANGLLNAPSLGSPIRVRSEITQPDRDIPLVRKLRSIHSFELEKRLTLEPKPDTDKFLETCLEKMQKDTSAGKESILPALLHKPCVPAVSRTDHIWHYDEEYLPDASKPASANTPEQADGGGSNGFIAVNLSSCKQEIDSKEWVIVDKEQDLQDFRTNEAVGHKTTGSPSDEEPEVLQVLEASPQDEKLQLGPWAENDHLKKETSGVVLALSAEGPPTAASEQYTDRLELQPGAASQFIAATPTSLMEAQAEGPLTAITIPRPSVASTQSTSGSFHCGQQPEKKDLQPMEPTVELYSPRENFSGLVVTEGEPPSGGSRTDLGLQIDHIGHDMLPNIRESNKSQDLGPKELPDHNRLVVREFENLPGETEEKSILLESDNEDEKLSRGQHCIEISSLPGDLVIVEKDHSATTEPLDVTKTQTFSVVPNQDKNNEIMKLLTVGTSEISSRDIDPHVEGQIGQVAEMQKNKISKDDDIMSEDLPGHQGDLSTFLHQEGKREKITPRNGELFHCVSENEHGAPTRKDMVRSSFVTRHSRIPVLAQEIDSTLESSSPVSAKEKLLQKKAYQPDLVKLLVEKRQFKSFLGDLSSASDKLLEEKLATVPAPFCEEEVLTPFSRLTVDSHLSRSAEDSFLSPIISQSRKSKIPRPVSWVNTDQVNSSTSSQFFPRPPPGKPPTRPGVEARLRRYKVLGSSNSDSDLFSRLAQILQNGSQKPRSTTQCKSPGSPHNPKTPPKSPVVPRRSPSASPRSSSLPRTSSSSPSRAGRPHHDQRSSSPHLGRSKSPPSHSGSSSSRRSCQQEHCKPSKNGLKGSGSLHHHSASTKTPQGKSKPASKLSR

Measured: % residual kinase activity

Chain of Calcium/calmodulin-dependent protein kinase type 1G (Homo sapiens) (Q96NX5 whole entry): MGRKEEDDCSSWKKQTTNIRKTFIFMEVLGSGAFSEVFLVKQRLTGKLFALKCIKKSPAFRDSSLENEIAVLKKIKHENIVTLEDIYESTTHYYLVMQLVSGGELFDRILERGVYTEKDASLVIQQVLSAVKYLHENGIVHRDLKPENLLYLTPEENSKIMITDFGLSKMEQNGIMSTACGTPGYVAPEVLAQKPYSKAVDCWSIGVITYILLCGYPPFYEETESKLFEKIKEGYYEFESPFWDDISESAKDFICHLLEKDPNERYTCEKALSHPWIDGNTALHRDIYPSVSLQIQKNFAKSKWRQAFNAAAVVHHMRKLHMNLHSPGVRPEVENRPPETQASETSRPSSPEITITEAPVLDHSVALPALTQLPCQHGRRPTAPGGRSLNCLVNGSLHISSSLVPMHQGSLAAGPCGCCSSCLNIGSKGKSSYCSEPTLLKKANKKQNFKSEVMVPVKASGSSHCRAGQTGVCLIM

CN1CCN(c2cnc3c(C4CCN(C(=O)c5ccc(OC(F)(F)F)cc5N)CC4)ncnc3c2)CC1 [BAY-885]
inactive: [1] 93% | [2] 103% | [3] 106% | [4] 104% | [5] 108% | [6] 118% | [7] 106% | [8] 110% | [9] 98%
